Source: patent publication US20230373952A1, “LACTAM COMPOUNDS AS Kv1.3 POTASSIUM SHAKER CHANNEL BLOCKERS” (D.E. Shaw Research, LLC, priority 2020, published 2023)

Assays:
Kv1.3 potassium channel = target: T1, Kv1.3 potassium channel (Homo sapiens, UniProt P22001); experiment: Kv1.3 potassium channel blocker activity, automated whole-cell patch clamp (Patchliner); assay type: cell-based; settings: CHO-K1 cells stably expressing Kv1.3; whole-cell current inhibition, Hill fit; read-out: Kv1.3 IC50
T1 construct: expressed in transfected cells
Description: CHO-K1 cells stably expressing Kv1.3 were grown in DMEM containing 10% heat-inactivated FBS, 1 mM sodium pyruvate, 2 mM L-glutamine and G418 (500 μg/ml).
The currents were evoked by applying 100 ms depolarizing pulses from −90 mV (holding potential) to +40 mV were applied with 0.1 Hz frequency. […] 10-second breaks were used between pulse trains (see Table H below).
Passive leak currents were subtracted online using a P/4 procedure (HEKA Elektronik Dr. Schulze GmbH). […] Total compound incubation time before the next pulse train was not longer than 10 seconds. Peak current inhibition was observed during compound equilibration.

hERG channel = hERG channel (Homo sapiens, UniProt Q12809); experiment: cell-based
Chain of hERG channel (Q12809 whole entry): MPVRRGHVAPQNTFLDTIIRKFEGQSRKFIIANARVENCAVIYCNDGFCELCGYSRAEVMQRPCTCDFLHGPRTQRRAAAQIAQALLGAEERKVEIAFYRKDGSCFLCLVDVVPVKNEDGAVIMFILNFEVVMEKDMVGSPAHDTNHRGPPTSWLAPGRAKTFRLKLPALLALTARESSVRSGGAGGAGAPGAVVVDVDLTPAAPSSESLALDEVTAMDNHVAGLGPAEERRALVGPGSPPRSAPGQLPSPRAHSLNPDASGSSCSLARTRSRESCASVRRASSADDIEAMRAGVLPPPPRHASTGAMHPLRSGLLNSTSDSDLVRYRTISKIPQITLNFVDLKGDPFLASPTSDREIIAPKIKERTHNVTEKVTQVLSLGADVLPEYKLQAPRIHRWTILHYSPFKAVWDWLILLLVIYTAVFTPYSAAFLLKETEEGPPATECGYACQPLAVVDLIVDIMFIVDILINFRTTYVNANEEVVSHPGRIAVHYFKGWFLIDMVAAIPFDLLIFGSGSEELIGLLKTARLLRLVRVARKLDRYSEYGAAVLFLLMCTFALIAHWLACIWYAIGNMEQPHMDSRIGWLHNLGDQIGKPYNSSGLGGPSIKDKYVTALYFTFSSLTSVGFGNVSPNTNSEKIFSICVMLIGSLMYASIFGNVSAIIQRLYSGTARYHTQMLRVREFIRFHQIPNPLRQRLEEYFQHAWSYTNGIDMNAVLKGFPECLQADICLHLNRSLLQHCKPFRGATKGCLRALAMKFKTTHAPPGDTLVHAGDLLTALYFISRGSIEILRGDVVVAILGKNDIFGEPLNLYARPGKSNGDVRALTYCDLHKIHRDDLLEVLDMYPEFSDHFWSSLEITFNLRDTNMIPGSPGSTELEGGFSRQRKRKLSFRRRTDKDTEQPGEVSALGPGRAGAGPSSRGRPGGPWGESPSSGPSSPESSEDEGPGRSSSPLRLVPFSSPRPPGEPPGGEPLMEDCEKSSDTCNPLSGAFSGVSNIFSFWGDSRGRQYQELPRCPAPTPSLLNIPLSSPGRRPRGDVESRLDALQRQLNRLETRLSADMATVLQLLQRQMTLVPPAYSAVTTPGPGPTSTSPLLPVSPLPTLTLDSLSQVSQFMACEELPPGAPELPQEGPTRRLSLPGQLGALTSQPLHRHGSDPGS
Description: This assay is used to evaluate the disclosed compounds' inhibition activities against the hERG channel.
CHO-K1 cells stably expressing hERG were grown in Ham's F-12 Medium with glutamine containing 10% heat-inactivated FBS, 1% penicillin/streptomycin, hygromycin (100 μg/ml) and G418 (100 μg/ml). Cells were grown in culture flasks at 37° C. in a 5% CO2-humidified incubator.
All compounds were dissolved in DMSO at 30 mM. Compound stock solutions were freshly diluted with external solution to concentrations of 30 nM, 100 nM, 300 nM, 1 μM, 3 μM, 10 μM, 30 μM and 100 μM. The highest content of DMSO (0.3%) was present in 100 μM.
The voltage protocol (see Table I) was designed to simulate voltage changes during a cardiac action potential with a 300 ms depolarization to +20 mV (analogous to the plateau phase of the cardiac action potential), a repolarization for 300 ms to −50 mV (inducing a tail current) and a final step to the holding potential of −80 mV. The pulse frequency was 0.3 Hz. Control (compound-free) and compound pulse trains for each compound concentration applied contained 70 pulses.
Whole-cell current recordings and compound application were enabled by means of an automated patch clamp platform Patchliner (Nanion). EPC 10 patch clamp amplifier (HEKA) along with Patchmaster software (HEKA Elektronik Dr. Schulze GmbH) was used for data acquisition. Data were sampled at 10 kHz without filtering. Increasing compound concentrations were applied consecutively to the same cell without washouts in between.
AUC and PEAK values were obtained with Patchmaster (HEKA Elektronik Dr. Schulze GmbH). To determine IC50 the last single pulse in the pulse train corresponding to a given compound concentration was used. Obtained AUC and PEAK values in the presence of compound were normalized to control values in the absence of compound.

T1 sequence (P22001 whole entry): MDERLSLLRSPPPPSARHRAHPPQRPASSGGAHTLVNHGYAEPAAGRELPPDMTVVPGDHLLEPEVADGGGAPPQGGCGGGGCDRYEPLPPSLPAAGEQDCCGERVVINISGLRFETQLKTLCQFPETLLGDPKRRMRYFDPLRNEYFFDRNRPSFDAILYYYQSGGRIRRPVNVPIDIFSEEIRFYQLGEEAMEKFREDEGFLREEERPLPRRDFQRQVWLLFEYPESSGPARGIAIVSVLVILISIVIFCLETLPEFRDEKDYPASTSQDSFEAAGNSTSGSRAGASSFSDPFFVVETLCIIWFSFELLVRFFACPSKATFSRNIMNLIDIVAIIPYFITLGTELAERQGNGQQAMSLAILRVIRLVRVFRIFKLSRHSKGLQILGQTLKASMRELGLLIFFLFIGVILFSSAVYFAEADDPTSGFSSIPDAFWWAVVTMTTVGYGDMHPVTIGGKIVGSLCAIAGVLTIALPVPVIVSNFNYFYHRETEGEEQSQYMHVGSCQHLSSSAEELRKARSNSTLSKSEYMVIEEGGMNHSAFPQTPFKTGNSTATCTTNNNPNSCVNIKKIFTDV

Compound	IC50 (Kv1.3 potassium channel) [µM]	IC50 (hERG channel) [µM]
O=C1C[C@@H](c2c(O)ccc(Cl)c2Cl)CN1C1CCOCC1 [Compound 17, (4S)-4-(2,3-dichloro-6-hydroxyphenyl)-1-(pyran-4-yl)pyrrolidin-2-one]	< 1	> 30
O=C1C[C@@H](c2c(O)ccc(Cl)c2Cl)CN1C1COC1 [Compound 24, (S)-4-(2,3-dichloro-6-hydroxyphenyl)-1-(oxetan-3-yl)pyrrolidin-2-one]	< 0.1	> 30
O=C1C[C@@H](c2c(O)ccc(Cl)c2Cl)CCN1[C@@H]1CCNC1 (single isomer, unassigned) [Compound 4, 4-(2,3-dichloro-6-hydroxyphenyl)-1-[pyrrolidin-3-yl]piperidin-2-one]	< 1	
N[C@@H]1C(=O)N(CCO)C[C@@H]1c1c(O)ccc(Cl)c1Cl [Compound 105]	< 1	> 100
CN(C)C(=O)CCN1C[C@H](c2c(O)ccc(Cl)c2Cl)CC1=O [Compound 41, (S)-3-(4-(2,3-dichloro-6-hydroxyphenyl)-2-oxopyrrolidin-1-yl)-N,N-dimethylpropanamide]	< 0.1	> 100
NC(=O)CCN1C[C@H](c2c(O)ccc(Cl)c2Cl)CC1=O [Compound 40, (S)-3-(4-(2,3-dichloro-6-hydroxyphenyl)-2-oxopyrrolidin-1-yl)propanamide]	< 0.1	> 100
O=C1C[C@@H](c2c(O)ccc(Cl)c2Cl)CN1[C@H]1C[C@](O)(CO)C1 (single isomer, unassigned; isomer 4) [Compound 71]	< 0.1	> 100
O=C1O[C@H](c2c(O)ccc(Cl)c2Cl)CN1CCO (single isomer, unassigned; isomer 1) [Compound 93, 5-(2,3-dichloro-6-hydroxyphenyl)-3-(2-hydroxyethyl)oxazolidin-2-one isomer 1]	< 1	> 100
O=C1C[C@@H](c2c(O)ccc(Cl)c2Cl)CN1[C@H]1CCOC1 (single isomer, unassigned; isomer 1) [Compound 27]	< 1	
CC1[C@@H](c2c(O)ccc(Cl)c2Cl)CC(=O)N1C[C@H](O)CO (stereo in doubt) [Compound 78, (4R,5R)-4-(2,3-dichloro-6-hydroxyphenyl)-1-[(2S)-2,3-dihydroxypropyl]-5-methylpyrrolidin-2-one]	< 10	
N[C@@H]1C(=O)N(C2CNC2)C[C@H]1c1c(O)ccc(Cl)c1Cl [Compound 91, (3S,4R)-3-amino-1-(azetidin-3-yl)-4-(2,3-dichloro-6-hydroxyphenyl)pyrrolidin-2-one]	< 10	
O=C1N[C@@H](c2c(O)ccc(Cl)c2Cl)CCN1[C@H]1CCNC1 (single isomer, unassigned) [Compound 8, 4-(2,3-dichloro-6-hydroxyphenyl)-1-[pyrrolidin-3-yl]-tetrahydropyrimidin-2(1H)-one]	< 1	
O=C1C[C@@H](c2c(O)ccc(Cl)c2Cl)CN1C(CO)CO [Compound 18, (4S)-4-(2,3-dichloro-6-hydroxyphenyl)-1-(1,3-dihydroxypropan-2-yl)pyrrolidin-2-one]	< 1	
N[C@H](CO)CN1C[C@H](c2c(O)ccc(Cl)c2Cl)CC1=O [Compound 50, (4S)-1-[(2S)-2-amino-3-hydroxypropyl]-4-(2,3-dichloro-6-hydroxyphenyl)pyrrolidin-2-one]	< 0.1	
C[C@H](O)CCN1C[C@H](c2c(O)ccc(Cl)c2Cl)CC1=O (single isomer, unassigned; isomer 2) [Compound 48]	< 0.1	
C[C@@H]1[C@H](c2c(O)ccc(Cl)c2Cl)CC(=O)N1CCO [Compound 84, (4S,5R)-4-(2,3-dichloro-6-hydroxyphenyl)-1-(2-hydroxyethyl)-5-methylpyrrolidin-2-one]	< 1	
Cn1cnc(N2C[C@H](c3c(O)ccc(Cl)c3Cl)CC2=O)c1 [Compound 59, (S)-4-(2,3-dichloro-6-hydroxyphenyl)-1-(1-methyl-1H-imidazol-4-yl)pyrrolidin-2-one]	< 1	

Further lines, with some results ahead:

IC50 (Kv1.3 potassium channel) [µM]	Compound	IC50 (hERG channel) [µM]
< 0.1	O=C1CNCCN1CCN1C[C@H](c2c(O)ccc(Cl)c2Cl)CC1=O [Compound 75, 1-[2-[(4S)-4-(2,3-dichloro-6-hydroxyphenyl)-2-oxopyrrolidin-1-yl]ethyl]piperazin-2-one]	> 30
< 1	O=C1N[C@H](c2c(O)ccc(Cl)c2Cl)CCN1[C@H]1CCNC1 (single isomer, unassigned) [Compound 10, 4-(2,3-dichloro-6-hydroxyphenyl)-1-[pyrrolidin-3-yl]-tetrahydropyrimidin-2(1H)-one]	
< 0.1	O=C1C[C@@H](c2c(O)ccc(Cl)c2Cl)CN1c1cnn(CCO)c1 [Compound 69, (S)-4-(2,3-dichloro-6-hydroxyphenyl)-1-(1-(2-hydroxyethyl)-1H-pyrazol-4-yl)pyrrolidin-2-one]	
< 1	O=C1C[C@@H](c2c(O)ccc(Cl)c2Cl)CN1C1CCOC1 (single isomer, unassigned; isomer 2) [Compound 28]	
< 10	C[C@H]1C(=O)N(C2CNC2)C[C@@H]1c1c(O)ccc(Cl)c1Cl (single isomer, unassigned; isomer 3) [Compound 89, 1-(azetidin-3-yl)-4-(2,3-dichloro-6-hydroxyphenyl)-3-methylpyrrolidin-2-one isomer 3]	
< 1	O=C1C[C@H](c2c(O)ccc(Cl)c2Cl)CCN1[C@@H]1CCNC1 (single isomer, unassigned) [Compound 3, 4-(2,3-dichloro-6-hydroxyphenyl)-1-[pyrrolidin-3-yl]piperidin-2-one]	
< 0.1	O=C1CC[C@H](c2c(O)ccc(Cl)c2Cl)CN1[C@H]1CCNC1 (single isomer, unassigned) [Compound 7, 5-(2,3-dichloro-6-hydroxyphenyl)-1-[pyrrolidin-3-yl]piperidin-2-one]	> 30
< 1	O=C1CN[C@@H](c2c(O)ccc(Cl)c2Cl)CN1C1CNC1 (single isomer, unassigned; isomer 1) [Compound 97, 1-(azetidin-3-yl)-5-(2,3-dichloro-6-hydroxyphenyl)piperazin-2-one isomer 1]	
< 1	C[C@H]1C(=O)N(C2CNC2)C[C@H]1c1c(O)ccc(Cl)c1Cl (single isomer, unassigned; isomer 1) [Compound 87, 1-(azetidin-3-yl)-4-(2,3-dichloro-6-hydroxyphenyl)-3-methylpyrrolidin-2-one isomer 1]	
< 10	C[C@@H]1C(=O)N(C2CNC2)C[C@H]1c1c(O)ccc(Cl)c1Cl (single isomer, unassigned; isomer 2) [Compound 88, 1-(azetidin-3-yl)-4-(2,3-dichloro-6-hydroxyphenyl)-3-methylpyrrolidin-2-one isomer 2]	
< 1	O=C1C[C@@H](c2c(O)ccc(Cl)c2Cl)CN1c1cccnc1 [Compound 63, (S)-4-(2,3-dichloro-6-hydroxyphenyl)-1-(pyridin-3-yl)pyrrolidin-2-one]	
< 30	C[C@H]1[C@@H](c2c(O)ccc(Cl)c2Cl)CC(=O)N1CCO [Compound 85, (4R,5S)-4-(2,3-dichloro-6-hydroxyphenyl)-1-(2-hydroxyethyl)-5-methylpyrrolidin-2-one]	
< 30	O=C1CO[C@@H](c2c(O)ccc(Cl)c2Cl)CN1CCO (single isomer, unassigned; isomer 2) [Compound 96, 6-(2,3-dichloro-6-hydroxyphenyl)-4-(2-hydroxyethyl)morpholin-3-one isomer 2]	
< 1	CC(C)(O)CCN1C[C@H](c2c(O)ccc(Cl)c2Cl)CC1=O [Compound 45, (S)-4-(2,3-dichloro-6-hydroxyphenyl)-1-(3-hydroxy-3-methylbutyl)pyrrolidin-2-one]	
< 30	O=C1CN[C@H](c2c(O)ccc(Cl)c2Cl)CN1C1CNC1 (single isomer, unassigned; isomer 2) [Compound 98, 1-(azetidin-3-yl)-5-(2,3-dichloro-6-hydroxyphenyl)piperazin-2-one isomer 2]	
< 0.1	C[C@@H](O)CCN1C[C@H](c2c(O)ccc(Cl)c2Cl)CC1=O (single isomer, unassigned; isomer 1) [Compound 47]	
< 10	Cc1cc(N2C[C@H](c3c(O)ccc(Cl)c3Cl)CC2=O)no1 [Compound 73, (S)-4-(2,3-dichloro-6-hydroxyphenyl)-1-(5-methylisoxazol-3-yl)pyrrolidin-2-one]	
< 1	Cc1cc(N2C[C@H](c3c(O)ccc(Cl)c3Cl)CC2=O)sn1 [Compound 60, (S)-4-(2,3-dichloro-6-hydroxyphenyl)-1-(3-methylisothiazol-5-yl)pyrrolidin-2-one]	
< 0.1	N[C@@H](CO)CN1C[C@H](c2c(O)ccc(Cl)c2Cl)CC1=O [Compound 49, (4S)-1-[(2R)-2-amino-3-hydroxypropyl]-4-(2,3-dichloro-6-hydroxyphenyl)pyrrolidin-2-one]	
< 10	CC1[C@@H](c2c(O)ccc(Cl)c2Cl)CC(=O)N1CCO (stereo in doubt) [Compound 80, (4R,5R)-4-(2,3-dichloro-6-hydroxyphenyl)-1-(2-hydroxyethyl)-5-methylpyrrolidin-2-one]	
< 1	O=C1CC[C@@H](c2c(O)ccc(Cl)c2Cl)CN1[C@H]1CCNC1 (single isomer, unassigned) [Compound 6, 5-(2,3-dichloro-6-hydroxyphenyl)-1-[pyrrolidin-3-yl]piperidin-2-one]	
< 10	C[C@H]1[C@@H](c2c(O)ccc(Cl)c2Cl)CC(=O)N1C1CNC1 [Compound 83, (4R,5S)-1-(azetidin-3-yl)-4-(2,3-dichloro-6-hydroxyphenyl)-5-methylpyrrolidin-2-one]	
